Target: EmrE (Escherichia coli, UniProt P23895)
Experiment: biochemical

Sequence of EmrE (P23895 whole entry): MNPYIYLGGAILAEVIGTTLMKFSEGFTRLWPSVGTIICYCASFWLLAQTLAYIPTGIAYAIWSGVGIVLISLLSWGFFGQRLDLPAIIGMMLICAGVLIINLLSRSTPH

Kd: 120 ± 12 nM
SMILES: c1ccc([P+](c2ccccc2)(c2ccccc2)c2ccccc2)cc1 [TPP^+]
